The values that follow come from patent US20020156284A1, “Crystalline form of omeprazole” (priority 1998, published 2002).

Molecules are shown by their SMILES. Entries after “also recorded” stand apart in the source; their conditions may differ.

Common to all, as to type: physicochemical
A short description of series [1]: thermodynamic stability of crystal forms.
A further series can be described thus: hygroscopicity.
A short description of series [2]: chemical stability (thermo stability and light stability). The conditions noted are these: compared with omeprazole form B.
Where [3] appears, read: compared with omeprazole form B, especially at room temperature.

As for `COc1ccc2[nH]c([S+]([O-])Cc3ncc(C)c(OC)c3C)nc2c1` (centres unmarked) [Omeprazole form A, 5-methoxy-2-[[(4-methoxy-3,5-dimethyl-2-pyridinyl)methyl]sulfinyl]-1H-benzimidazole], the thermodynamic stability result in series [1] (setting [3]) is on record as “thermodynamically more stable; also recorded: thermo-dynamically more stable than omeprazole form B”. In addition, the “hygroscopicity (absolute statement)” value in the series “hygroscopicity” was “essentially non-hygroscopic”. In the series “hygroscopicity” (setting [3]), the hygroscopicity result is “less hygroscopic than omeprazole form B”. Also, the “chemical stability, such as thermo stability and light stability” value in series [2] is “better chemical stability”.
Regarding `COc1ccc2[nH]c([S+]([O-])Cc3ncc(C)c(OC)c3C)nc2c1` (centres unmarked) [Omeprazole form B, 5-methoxy-2-[[(4-methoxy-3,5-dimethyl-2-pyridinyl)methyl]sulfinyl]-1H-benzimidazole, reference compound], the “conversion into the other crystal form” value in series [1] (under certain conditions) was “completely or partly, be converted into omeprazole form A”.
